# Entries after “also recorded” stand apart in the source; their conditions may differ.
# Columns and labels:
# Assay type in all cases: cell-based
# [1] = system: human dermal fibroblast (HDF) cells; assay: Hyaluronic Acid (HA) assessment in human dermal fibroblasts; conditions: 10 consecutive days, n=6, change over emulsion control, retinol 1 μM; for A alone (% change in HA): active A of Table 3 alone, Tiliacora triandra 0.10%, glycolic acid 1 mM, KTFK 0.001%, sodium glycolate 10 μM; for B alone (% change in HA): active B of Table 3 alone, niacinamide 0.1%, Coleus forskohlii 0.001%, Tiliacora triandra 0.1%, Tetrapeptide 4 0.10%, phytol 0.010%
# Procedure: A series of experiments was conducted to assess the effects of the treatment regimens of active ingredients on the production of hyaluronic acid (HA) in human dermal fibroblast (HDF) cells. The following five treatment regimens were assessed: (1) active ingredient A, alone; (2) active ingredient B, alone; (3) the combination of active ingredients A+B; (4) active ingredient A, alone, followed by active ingredient B, alone (“A/B”); and (5) active ingredient B, alone, followed by active ingredient A, alone (“B/A”). For treatment regimens (1), (2), and (3), the active ingredients were administered to cells for 10 consecutive days. For treatment regimens (4) and (5) (sequential regimens), the cells were treated with active ingredient A or active ingredient B for 5 days, followed by active ingredient B or active ingredient A for 5 days, respectively.
# Human dermal fibroblast cells were grown in 96-well plates in DMEM media (available from CORNING, N.Y.) supplemented with 10% FBS and L-glutamine. After reaching about 75% confluence, cells were transferred into DMEM media without FBS, and incubated for 4-6 hours. Different wells were assigned to one of treatment regimens (1)-(5) as described above, with six wells allocated to each treatment regimen (i.e., n=6). All active ingredients were prepared as emulsions and applied directly to the HDF cells. The specific active ingredients used in each of the five treatment regimens are provided below in Table 3. Following treatment, cells were collected and the amount of hyaluronic acid (HA) secreted from the cells was measured using a commercially available HA assay (available from CORGENIX Inc., CO).
# The results are summarized below in Table 4 and plotted in FIGS. 13-17 as a percentage change over control (i.e. cells treated with the same emulsion but in absence of active ingredients).
# [2] = system: human dermal fibroblast (HDF) cells; assay: Hyaluronic acid in human dermal fibroblasts, pulsed versus daily treatment; conditions: for % Change in HA over control (daily): 12 consecutive days; for % Change in HA over control (daily) / % Change in HA over control (pulsed): Tiliacora triandra 0.05%, niacinamide 0.10%, glycolic acid 1 mM, retinol 1 μM, phytol 0.01%; for % Change in HA over control (pulsed): 2 days active / 2 days media without active, repeated over 12 days; for HA production, pulsed treatment compared with daily treatment: pulsed uses half as much active over 12 days
# Procedure: After reaching about 75% confluence, cells were transferred into DMEM media without FBS, and incubated for 4-6 hours. Different wells were assigned to one of treatment regimens (1)-(2) as described above, with six wells allocated to each treatment regimen. All active ingredients were prepared as emulsions and applied directly to the HDF cells. […] Following treatment, cells were collected and the amount of hyaluronic acid (HA) secreted from the cells was measured using a commercially available HA assay (available from […] Inc., CO).
# [3] = system: Human 3D skin EFT400FT tissues; assay: HA in full thickness 3D skin models; conditions: 4 consecutive days, n=12; 4% glycolic acid topically or 0.2% Tiliacora triandra via growth media
# Procedure: A series of experiments was conducted to assess the effects of the treatment regimens of glycolic acid and Tiliacora triandra on the production of hyaluronic acid (HA) on full thickness 3D skin cultures. Five different treatment regimens were assessed: (1) 4% glycolic acid, alone; (2) 0.2% Tiliacora triandra, alone; (3) the combination of 4% glycolic acid+0.2% Tiliacora triandra; (4) 4% glycolic acid, alone, followed by 0.2% Tiliacora triandra, alone; and (5) 0.2% Tiliacora triandra, alone, followed by 4% glycolic acid, alone. Glycolic acid was administered topically to the 3D tissue and Tiliacora triandra was administered via the growth media. For treatment regimens (1), (2), and (3), the active ingredient or ingredients were applied to cells for 4 consecutive days. For treatment regimens (4) and (5) (sequential regimens), the cells were treated with glycolic acid or Tiliacora triandra for 2 days, followed by Tiliacora triandra or glycolic acid for 2 days, respectively.
# Human 3D skin EFT400FT tissues (MatTek, Mass.) were cultured following the manufacturer's instructions. Each treatment regimen was applied to twelve 3D skin samples. […] Following treatment, cells were collected and the amount of hyaluronic acid secreted from the cells was measured using a commercially available HA assay (available from CORGENIX Inc., CO). […]
# [4] = system: Human 3D MelanoDerm MEL-B skin tissues; assay: Melanin in 3D skin models (SOLVABLE melanin assay); conditions: 14 consecutive days, n=6, change from control, niacinamide 0.1%; for B (% change in pigmentation): active B of Table 8 alone, hexylresorcinol 0.05%; for A (% change in pigmentation): active A of Table 8 alone, TDPA 1%
# Procedure: A series of experiments was conducted to assess the effects of treatment regimens of active ingredients shown in Table 8 on the production of melanin in 3D models. Four different treatment regimens were assessed: (1) active ingredient A, alone; (2) active ingredient B, alone; (3) the combination of active ingredients A+B; and (4) active ingredient A, alone, followed by active ingredient B, alone, as detailed in Table 8. For treatment regimens (1), (2), and (3), the active ingredients were applied to cells for 14 consecutive days. For treatment regimen (4) (sequential regimen), the cells were treated with active ingredient A for 7 days, followed by treatment with the other active ingredient B for 7 days.
# Human 3D MelanoDerm MEL-B skin tissues (available from MatTek, Mass.) were cultured following the manufacture instructions. Different skin tissue models were assigned to one of treatment regimens (1)-(4) as described above, with six models allocated to each treatment regimen (i.e., n=6). All active ingredients were prepared as emulsions and applied directly to the skin models. Following treatment, skin tissue models were collected and the amount of melanin produced from the cells was measured using a SOLVABLE melanin assay. Treated skin tissues were prepared using a phosphate buffer saline and sodium bicarbonate. Each skin tissue is added to 500 μl of 0.5 M SOLVABLE solubilizer (available from Packard BioScience) and incubated at 95° overnight. The absorbance of each skin tissue sample is measured at 490 nm and the absorbance is compared to a standard curve to indicate the amount of melanin produced and pigmentation in each skin tissue model.
# The results for treatments measuring the melanin content produced are shown in Table 9 as a percentage change from control (i.e., untreated samples or samples treated with the same emulsion but in absence of active ingredients).
# [5] = system: human dermal fibroblast (HDF) cells; assay: Pro-collagen type I assessment in human dermal fibroblasts (ELISA); conditions: 10 consecutive days, change from emulsion control, retinol 1 μM; for A alone (% change in pro-collagen): active A of Table 6 alone, phytol 0.0001%
# Procedure: A series of experiments was conducted to assess the effects of the treatment regimens of active ingredients shown in Table 6 on the production of pro-collagen type I in human dermal fibroblast (HDF) cells. Five different treatment regimens were assessed: (1) active ingredient A, alone; […] (3) the combination of active ingredients A+B; […] For treatment regimens (1), (2), and (3), the active ingredients were applied to cells for 10 consecutive days. […] After reaching about 75% confluence, cells were transferred into DMEM media without FBS, and incubated for 4-6 hours. Different wells were assigned to one of treatment regimens (1)-(5) as described above, with six wells allocated to each treatment regimen. All active ingredients were prepared as emulsions and applied directly to the HDF cells. The specific active ingredients used in each of the five treatment regimens are provided below in Table 6. Following treatment, measurements on the amount of pro-collagen produced from the cells were performed using a commercially available pro-collagen type I enzyme-linked immuno sorbent assay (ELISA) kit (available from TAKARA Inc., KR). [table]
# [6] = system: Human dermal fibroblast cells; assay: Pro-collagen I secretion by human dermal fibroblasts (HTRF human pro-collagen I kit); conditions: 0.0001% phytol or 1 μM retinol alone for 16 days, re-treated every other day
# Procedure: Human dermal fibroblast cells were grown in a 6-well plate in DMEM media (available from Corning, N.Y.) supplemented with 10% Fetal Bovine Serum (FBS) and L-glutamine (1.5×10^5 cells/plate) overnight. After reaching about 75% confluence, cells were transferred into DMEM media without FBS and incubated for 4-6 hours. Next, the cells were treated with either 0.0001% phytol or 1 μM retinol. Treatment with either phytol alone, or retinol alone was performed in DMEM media without FBS for 16 days. For sequential treatments, the cells were treated with 0.0001% phytol for 6 days followed by 1 μM retinol for 10 days, or with 1 μM retinol for 6 days, followed by 0.0001% phytol for 10 days. Every other day, media were collected and cells were re-treated with phytol or retinol in the same fashion. After treatment, the amount of collagen secreted into the culture media was determined using the HTRF human pro-collagen I kit (available from CISBIO, Inc).
Compound,A alone (% change in HA) [1] [%],% Change in HA over control (daily) [2] [%],% Change in HA over control (pulsed) [2] [%],"HA production, pulsed treatment compared with daily treatment [2]",B alone (% change in HA) [1] [%],other results
O=C(O)CO [Glycolic Acid],20.8,9.1,5.1,only slightly less effective than daily treatment,,"percentage change in HA over control, active alone [3]: 42.6%"
CCCCCCc1ccc(O)cc1O [Hexylresorcinol],,,,,,B (% change in pigmentation) [4]: 140.4%
NC(=O)c1cccnc1 [Niacinamide],,−36.5,1.3,,−51.6,A (% change in pigmentation) [4]: −18.9%; B (% change in pigmentation) [4]: −18.9%
C/C(=C\CO)CCC[C@H](C)CCC[C@H](C)CCCC(C)C [Phytol],,−4.0,25.1,significantly more production of hyaluronic acid than in daily treatment regimens,67.7,A alone (% change in pro-collagen) [5]: 19.1%; pro-collagen production over treatment time [6]: declines for both phytol- and retinol-treated cells after day 13 despite continuing treatment; also recorded: plateau in effectiveness over time
CC1=C(/C=C/C(C)=C/C=C/C(C)=C/CO)C(C)(C)CCC1 [Retinol],11.7,17.2,32.0,significantly more production of hyaluronic acid than in daily treatment regimens,11.7,"A alone (% change in pro-collagen) [5]: 13.6%; B alone (% change in pro-collagen) ([5]; active B of Table 6 alone, Coleus forskohlii 0.001%): 3.9%; pro-collagen production over treatment time [6]: declines for both phytol- and retinol-treated cells after day 13 despite continuing treatment; also recorded: plateau in effectiveness over time"
O=C([O-])CO.[Na+] [Sodium Glycolate],−2.54,,,,,
"O=C(O)CCSCCC(=O)O [TDPA, thiodipropionic acid]",,,,,,A (% change in pigmentation) [4]: −19.1%
Lys-Thr-Phe-Lys (KTFK; printed: Lys-Thr-Phe-Lys),23.7,,,,,
Tetrapeptide-4 [Tetrapeptide 4],,,,,15.1,
